Measured values taken from patent publication US9879004B2, “Substituted acetylene derivatives and their use as positive allosteric modulators of mGluR4” (Merck Patent GmbH, priority 2013, dated 2018).

Target: T1, mGluR4 (HEK293T-hmGluR4 cells) (Homo sapiens, UniProt Q14833)
T1 construct: host or cells: HEK293T
Assay: HEK-293 mGluR4 cells cAMP assay with EC20 L-Glutamate (HTRF)
Assay type: cell-based
Settings: positive allosteric activity at EC20 L-Glutamate, 10 μM Forskolin, cAMP HTRF readout, read-out: hrmGluR4/HEK293T-hmGluR4 (EC50)
Protocol: HEK-293 mGluR4 cells cAMP assay with EC20 L-Glutamate
Using mGluR4 suspension cell format, 10 μM Forskolin (final conc.) used to induce the production of cAMP.
Test the positive allosteric activity of the compounds of the invention at EC20 (2.3 μM for mGluR4 and 4.3 μM for mGluR6) L-Glutamate,
cAMP dymanic2 kit is intended for the direct quantitative determination of cAMP and its principle is based on HTRF technology.
Cells: HEK293T mGluR4 cells from Multispan, cat# C1191a lot# C1191a-040910 Culture Media: DMEM+GlutaMAX1+10% dialyzed FBS, 100 mM Sodium Pyruvate, 1 ug/ml puromycin.
Glutamine Starvation Media: DMEM without GlutaMax for plating the cells (glutamine starvation overnight). DMEM high Glucose, without phenol red, glutamine, or sodium pyruvate+10% dialyzed FBS, 100 mM Sodium Pyruvate, 1 ug/ml puromycin, 10 mM Hepes.
Cell Preparation: split cells at 80%-90% confluence. The following day, rinse the cells with DMEM without GlutaMax and change to Glutamine Starvation Media. Incubate overnight.
Prepare compound plate: Perform compound serial dilution (uses Matrix 4341 plate), using the Bravo liquid handling platform protocol (compound serial dilution) which adds DMSO to columns 1-24 (except cols. 3 and 13). Serial dilute compounds located in columns 3 and 13 at a 1:3 ratio; 10 points (10 ul of 3 mM compound into 20 ul DMSO). Use the Bravo liquid handling platform to transfer 1 ul from the serial dilution plate into Matrix 4314 plate to create stamp plates.
Dilute 20 mM Forskolin (in DMSO) stock solution in HBSS buffer to make a 20 uM solution (forskolin buffer; 2× solution). To the forskolin buffer, add glutamate to a concentration of 8 uM (compound dilution buffer; 2×EC20 glutamate and forskolin).
Using a multidrop, add 50 ul/well of compound dilution buffer to columns 1-22 of the 2 ul compound stamp plate. Columns 23 and 24 receive forskolin buffer containing 400 uM glutamate (EC100 glutamate; 2× solution). Columns 1 and 2 receive compound dilution buffer containing EC20 glutamate, which is the basal control. Add a glutamate dose response to row P of compound plate. Prepare the dose response by serial diluting glutamate at a 1:3 ratio in forskolin buffer starting at 2 mM glutamate (2×). Dilute the glutamate 9 times and transfer to compound plate.
Harvest cells: Rinse cells with pre-warmed HBSS-10 mM HEPES (without Ca Mg) and dissociate the cells from the flask with versene. Centrifuge the cells, remove the supernatant and suspend in pre-warmed HBSS+10 mM Hepes. Count the cells and centrifuge. Remove the supernatant and suspend the cells in HBSS+Hepes (with Ca Mg) at a density of 400,000 cells/ml.
Dispense 5 ul from the diluted compound plate into Greiner low volume cell plate using the Bravo liquid handling platform. Using a Multidrop with the small tubing cassette, dispense 5 ul of cells (2000 cells/well) onto the compounds contained in the low volume plates. Incubate the cells at 37° C., 5% CO2 for 30 minutes in the incubator.
Prepare cAMP-d2 and anti-cAMP-Crytate according to the instructions for the two step assay (see Cisbio manual) and add 10 ul of the mixed reagent to each well of the assay plate using the Multidrop. Incubate at room temperature for 60 minutes and read on the Envision plate reader using the mGluR low volume cAMP HTRF 384 well protocol. The readout is the calculated fluorescence ratio ([…]*10000).

T1 sequence (Q14833 33-912): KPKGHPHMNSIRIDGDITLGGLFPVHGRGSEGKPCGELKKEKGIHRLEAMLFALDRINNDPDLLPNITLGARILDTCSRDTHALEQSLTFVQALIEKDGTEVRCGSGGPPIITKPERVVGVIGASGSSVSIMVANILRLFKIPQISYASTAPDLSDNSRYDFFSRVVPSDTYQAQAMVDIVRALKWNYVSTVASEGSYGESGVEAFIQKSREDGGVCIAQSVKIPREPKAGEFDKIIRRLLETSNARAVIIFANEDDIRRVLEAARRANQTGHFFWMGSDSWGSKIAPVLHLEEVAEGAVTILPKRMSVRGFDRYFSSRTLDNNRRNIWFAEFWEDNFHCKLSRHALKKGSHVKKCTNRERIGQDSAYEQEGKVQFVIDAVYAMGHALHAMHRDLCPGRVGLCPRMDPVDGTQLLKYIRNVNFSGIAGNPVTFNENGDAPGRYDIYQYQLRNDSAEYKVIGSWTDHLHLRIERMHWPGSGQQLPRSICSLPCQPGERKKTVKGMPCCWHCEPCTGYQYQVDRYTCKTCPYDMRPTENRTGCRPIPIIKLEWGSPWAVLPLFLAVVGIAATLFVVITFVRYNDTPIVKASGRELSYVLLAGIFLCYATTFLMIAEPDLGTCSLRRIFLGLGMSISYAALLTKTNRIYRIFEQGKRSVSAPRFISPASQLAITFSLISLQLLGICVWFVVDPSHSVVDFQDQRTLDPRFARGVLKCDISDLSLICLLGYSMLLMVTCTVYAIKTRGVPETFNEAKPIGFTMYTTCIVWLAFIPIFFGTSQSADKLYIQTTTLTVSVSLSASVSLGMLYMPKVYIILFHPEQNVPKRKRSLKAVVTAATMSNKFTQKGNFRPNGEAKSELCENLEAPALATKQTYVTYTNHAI

| EC50 [nM] | SMILES |
| --- | --- |
| 1000 to 10000 | Fc1ccccc1C#Cc1ccnc2[nH]ccc12 [Compound 8, 4-(2-Fluoro-phenylethynyl)-1H-pyrrolo[2,3-b]pyridine] |
| < 1000 | Fc1ccc(C#Cc2ccnc3ccccc23)cc1 [Compound 4, 4-(4-Fluoro-phenylethynyl)-quinoline] |
| 1000 to 10000 | Clc1cccc(C#Cc2ccnc3ccccc23)c1 [Compound 9, 4-(3-Chloro-phenylethynyl)-quinoline] |
| 1000 to 10000 | Fc1ccccc1C#Cc1ccnc2ccccc12 [Compound 7, 4-(2-Fluoro-phenylethynyl)-quinoline] |
| < 1000 | Fc1ccc(C#Cc2ccnc3ccccc23)cc1F [Compound 5, 4-(3,4-Difluoro-phenylethynyl)-quinoline] |
| < 1000 | C(#Cc1ccnc2ccccc12)c1ccsc1 [Compound 3, 4-Thiophen-3-ylethynyl-quinoline] |
| 1000 to 10000 | C(#Cc1ccnc2ccccc12)c1cccs1 [Compound 6, 4-Thiophen-2-ylethynyl-quinoline] |
| < 1000 | Fc1cccc(C#Cc2ccnc3ccccc23)c1 [Compound 2, 4-(3-Fluoro-phenylethynyl)-quinoline] |
| < 1000 | C(#Cc1ccnc2ccccc12)c1ccccc1 [Compound 1, 4-Phenylethynyl-quinoline] |
